System: 5 TP53 wild type colorectal cancer cell lines
Experiment: Cell proliferation over the cell line panel, Example 3
Type: cell-based
Details: Example 3, panel of 5 lines, 13 nM-10 μM
Description: To test the effect of the combination of COMPOUND A, COMPOUND B, and COMPOUND C on cell proliferation cells were plated in black 384-well microplates with clear bottom (Matrix/Thermo Scientific, Catalog number 4332) in 50 μL media per well at cell densities between 500 and 1250 cells/well (Table 1 above) and allowed to incubate at 37 degrees, 5% CO2 for 24 h. After 24 h one 384-well plate per cell line was prepared for cell counting by microscopy (see below) without receiving treatment (=‘baseline’). The other cell plates were treated by transferring 25 nL of the 2000× compound from drug master plates using an ATS acoustic liquid dispenser (ECD Biosystems) and resulting in a final 1× concentration. COMPOUND A was used over a final concentration range of 13 nM-10 μM, COMPOUND B was used over a final concentration range of 13 nM-10 μM, and COMPOUND C was used over a final concentration range of 13 nM-10 μM (7 1:3 dilution steps). In order to assess the effect of the triple combination all individual COMPOUNDS (A, B, C), all three pair wise combinations (A+B, A+C, B+C), and the triple combination (A+B+C) were tested in the same experiment. […] Caspase 3/7 induction was measured as a proxy for apoptosis induced by the treatments. Cells were treated for 72 h to 96 h depending on their doubling time (Table 1), and Caspase 3/7 activation was measured every 24 h by microscopy using an InCell Analyzer 2000 (GE Healthcare) equipped with a 4× objective and FITC excitation/emission filters. […] All cells per well/treatment were captured in a single image by fluorescence microscopy using an InCell Analyzer 2000 (GE Healthcare) equipped with a 4× objective and DAPI excitation/emission filters.
Images were analyzed after adapting previously described methods (Horn, Sandmann et al. 2011, Nat. Methods 8(4): 341-346) and using the Bioconductor package EBImage in R (Pau, Fuchs et al. 2010, Bioinformatics 26(7):979-981). Objects in both channels, DAPI (for Hoechst/DNA) and FITC (for Caspase 3/7), were segmented separately by adaptive thresholding and counted. […]

Row | SMILES | Single agent growth inhibition, in words
1 | Cc1nc(NC(=O)N2CCC[C@H]2C(N)=O)sc1-c1ccnc(C(C)(C)C(F)(F)F)c1 [COMPOUND A, (S)-Pyrrolidine-1,2-dicarboxylic acid 2-amide 1-({4-methyl-5-[2-(2,2,2-trifluoro-1,1-dimethyl-ethyl)-pyridin-4-yl]-thiazol-2-yl}-amide)] | inhibited the growth of 2 of the cell lines with micromolar IC50 values, and was active only at the highest dose (10 μM) in the 3 other lines
2 | COc1cc2c(cc1OC(C)C)[C@H](c1ccc(Cl)cc1)N(c1ccc(N(C)C[C@H]3CC[C@H](N4CCN(C)C(=O)C4)CC3)cc1)C(=O)C2 [COMPOUND B, (S)-1-(4-Chloro-phenyl)-7-isopropoxy-6-methoxy-2-(4-{methyl-[4-(4-methyl-3-oxo-piperazin-1-yl)-trans-cyclohexylmethyl]-amino}-phenyl)-1,4-dihydro-2H-isoquinolin-3-one] | inhibited the growth of cell lines with sub-micromolar to micromolar IC50 values

— US20180318275A1, “COMBINATION THERAPY USING PI3K INHIBITOR AND MDM2 INHIBITOR” (Novartis AG, priority 2015, published 2018)
